biological target: T1, human PDE2A1 (Homo sapiens, UniProt O00408); experiment: IMAP FP PDE assay, human PDE2A1; assay type: biochemical; details: Lab B; read-out: Human PDE2 Ki (nM) Lab B
T1 construct: GST; purchased BPS Bioscience (San Diego, Calif.) 60020; host or cells: insect cells
Summary of the method: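 GST-tagged human PDE2A1 from insect cells; substrate 50 nM FAM-cAMP containing 1000 nM cGMP in Tris pH 7.2/MgCl2/DTT buffer, enzyme giving 20% conversion. 60 min at room temperature, IMAP binding reagent, fluorescence polarization read. Apparent Ki from FP readings using apparent KM 10,000 nM; ten-point 3-fold titrations.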

T1 sequence (O00408 1-920 isoform O00408-2): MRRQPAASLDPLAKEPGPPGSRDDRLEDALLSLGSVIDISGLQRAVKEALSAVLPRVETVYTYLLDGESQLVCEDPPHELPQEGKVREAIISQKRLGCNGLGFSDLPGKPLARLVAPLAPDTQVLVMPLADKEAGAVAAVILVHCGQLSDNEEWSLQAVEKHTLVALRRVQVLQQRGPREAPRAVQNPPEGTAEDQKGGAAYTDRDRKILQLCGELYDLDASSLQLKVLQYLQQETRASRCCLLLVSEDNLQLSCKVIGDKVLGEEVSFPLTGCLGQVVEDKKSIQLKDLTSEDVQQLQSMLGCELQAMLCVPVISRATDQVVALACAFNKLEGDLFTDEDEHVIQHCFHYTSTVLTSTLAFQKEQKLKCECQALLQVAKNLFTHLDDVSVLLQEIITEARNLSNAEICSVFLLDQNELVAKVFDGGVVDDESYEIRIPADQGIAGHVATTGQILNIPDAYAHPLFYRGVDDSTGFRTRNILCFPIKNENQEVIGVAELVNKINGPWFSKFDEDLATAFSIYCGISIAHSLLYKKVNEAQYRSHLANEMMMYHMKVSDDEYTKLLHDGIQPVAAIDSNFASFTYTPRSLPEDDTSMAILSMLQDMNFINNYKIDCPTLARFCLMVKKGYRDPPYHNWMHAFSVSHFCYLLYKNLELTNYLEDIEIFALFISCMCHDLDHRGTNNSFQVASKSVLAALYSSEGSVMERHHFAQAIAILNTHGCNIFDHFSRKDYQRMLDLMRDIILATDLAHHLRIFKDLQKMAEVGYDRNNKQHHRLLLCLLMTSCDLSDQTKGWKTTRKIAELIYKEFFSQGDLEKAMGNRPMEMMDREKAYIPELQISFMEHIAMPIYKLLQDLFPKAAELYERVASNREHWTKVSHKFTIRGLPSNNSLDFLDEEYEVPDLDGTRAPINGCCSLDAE

Ki	SMILES
39 nM	CC(C)c1nc2c(c(CO)nn2C(C)c2ccc(C(F)(F)F)cc2)c(=O)[nH]1 (racemic) [Example 296, 3-(Hydroxymethyl)-6-(1-methylethyl)-1-{1-[4-(trifluoromethyl)phenyl]ethyl}-1,5-dihydro-4H-pyrazolo[3,4-d]pyrimidin-4-one]
1.1 nM	Cc1nc2c(c(CO)nn2C(C)c2ccc(SC(F)(F)F)cc2)c(=O)[nH]1 (single isomer, unassigned) [Example 23, (S)- or (R)-3-(Hydroxymethyl)-6-methyl-1-(1-(4-(trifluoromethylthio)phenyl)ethyl)-1H-pyrazolo[3,4-d]pyrimidin-4(5H)-one]
1.9 nM	Cc1nc2c(c(CO)nn2C(c2ccc(C(F)(F)F)cc2)C2(C)CC2)c(=O)[nH]1 (single isomer, unassigned) [Example 24, (R)- or (S)-3-(Hydroxymethyl)-6-methyl-1-((1-methylcyclopropyl)(4-(trifluoromethyl)phenyl)methyl)-1H-pyrazolo[3,4-d]pyrimidin-4(5H)-one]
7.6 nM	Cc1nc2c(c(CO)nn2C(c2ccc(C(F)(F)F)cc2)C(C)(C)C)c(=O)[nH]1 (single isomer, unassigned) [Example 83, (S)- or (R)-1-(2,2-Dimethyl-1-(4-(trifluoromethyl)phenyl)-propyl)-3-(hydroxymethyl)-6-methyl-1H-pyrazolo[3,4-d]pyrimidin-4(5H)-one]
0.96 nM	COc1ccc(Cc2nc3c(c(CF)nn3C(C)c3ccc(C(F)(F)F)cc3)c(=O)[nH]2)cc1 (single isomer, unassigned) [Example 219, (S)- or (R)-3-(Fluoromethyl)-6-(4-methoxybenzyl)-1-(1-(4-(trifluoromethyl)phenyl)ethyl)-1H-pyrazolo[3,4-d]pyrimidin-4(5H)-one]
1.3 nM	COc1cccc(Cc2nc3c(c(CF)nn3C(C)c3ccc(C(F)(F)F)cc3)c(=O)[nH]2)c1 (single isomer, unassigned) [Example 221, (S)- or (R)-3-(Fluoromethyl)-6-(3-methoxybenzyl)-1-(1-(4-(trifluoromethyl)phenyl)ethyl)-1H-pyrazolo[3,4-d]pyrimidin-4(5H)-one]
11 nM	Cc1nc2c(c(CF)nn2C(c2ccc(C(F)(F)F)cc2)C(C)(C)C)c(=O)[nH]1 (single isomer, unassigned) [Example 234, (S)- or (R)-1-(2,2-Dimethyl-1-(4-(trifluoromethyl)phenyl)propyl)-3-(fluoromethyl)-6-methyl-1H-pyrazolo[3,4-d]pyrimidin-4(5H)-one]
1.9 nM	Cc1nc2c(c(CCO)nn2C(C)c2ccc(C(F)(F)F)cc2)c(=O)[nH]1 (single isomer, unassigned) [Example 250]
16 nM	Cc1nc2c(c(C#N)nn2C(C)c2ccc(C(F)(F)F)cc2)c(=O)[nH]1 (single isomer, unassigned) [Example 252]
1.6 nM	Cc1nc2c(c(C(F)(F)CO)nn2C(C)c2ccc(C(F)(F)F)cc2)c(=O)[nH]1 (single isomer, unassigned) [Example 255]
17 nM	COCc1nn(C(C)c2ccc(C(F)(F)F)cc2)c2nc(C)[nH]c(=O)c12 (single isomer, unassigned) [Example 279]
77 nM	Cc1nc2c(c(CC#N)nn2C(C)c2ccc(C(F)(F)F)cc2)c(=O)[nH]1 (single isomer, unassigned) [Example 280]
2 nM	Cc1nc2c(c(CC#N)nn2C(C)c2ccc(C(F)(F)F)cc2)c(=O)[nH]1 (single isomer, unassigned) [Example 281]

Second part, the compound before the results:

SMILES	Ki
Cc1nc2c(c(CO)nn2C(C)c2ccc(C(F)(F)F)cc2F)c(=O)[nH]1 (single isomer, unassigned) [Example 17, (S)- or (R)-1-(1-(2-Fluoro-4-(trifluoromethyl)phenyl)ethyl)-3-(hydroxymethyl)-6-methyl-1H-pyrazolo[3,4-d]pyrimidin-4(5H)-one]	2.1 nM
Cc1nc2c(c(CO)nn2C(C)c2ccc(C(F)(F)F)cc2Cl)c(=O)[nH]1 (single isomer, unassigned) [Example 19, (S)- or (R)-1-(1-(2-Chloro-4-(trifluoromethyl)phenyl)ethyl)-3-(hydroxymethyl)-6-methyl-1H-pyrazolo[3,4-d]pyrimidin-4(5H)-one]	1.8 nM
Cc1nc2c(c(CO)nn2C(C)c2ccc(OC(F)F)cc2)c(=O)[nH]1 (single isomer, unassigned) [Example 21, (S)- or (R)-1-(1-(4-(Difluoromethoxy)phenyl)ethyl)-3-(hydroxymethyl)-6-methyl-1H-pyrazolo[3,4-d]pyrimidin-4(5H)-one]	3.5 nM
Cc1nc2c(c(CC(F)(F)F)nn2C(c2ccc(C(F)(F)F)cc2)C(C)(C)C)c(=O)[nH]1 (single isomer, unassigned) [Example 57, (S)- or (R)-1-(2,2-Dimethyl-1-(4-(trifluoromethyl)phenyl)propyl)-6-methyl-3-(2,2,2-trifluoroethyl)-1H-pyrazolo[3,4-d]pyrimidin-4(5H)-one]	62 nM
Cc1nc2c(c(CC(F)(F)F)nn2C(c2ccc(C(F)(F)F)cc2)C2(C)CC2)c(=O)[nH]1 (single isomer, unassigned) [Example 59, (S)- or (R)-6-Methyl-1-((1-methylcyclopropyl)(4-(trifluoromethyl)phenyl)methyl)-3-(2,2,2-trifluoroethyl)-1H-pyrazolo[3,4-d]pyrimidin-4(5H)-one]	23 nM
Cc1nc2c(c(CO)nn2C(C)c2ccc(S(F)(F)(F)(F)F)cc2)c(=O)[nH]1 (single isomer, unassigned) [Example 77]	3.3 nM
Cc1nc2c(c(CO)nn2C(c2ccc(OC(F)(F)F)cc2)C(C)C)c(=O)[nH]1 (single isomer, unassigned) [Example 84, (R)- or (S)-3-(Hydroxymethyl)-6-methyl-1-(2-methyl-1-(4-(trifluoromethoxy)phenyl)propyl)-1H-pyrazolo[3,4-d]pyrimidin-4(5H)-one]	11 nM
Cc1nc2c(c(CO)nn2C(c2ccc(OC(F)(F)F)cc2)C(C)C)c(=O)[nH]1 (single isomer, unassigned) [Example 85, (S)- or (R)-3-(Hydroxymethyl)-6-methyl-1-(2-methyl-1-(4-(trifluoromethoxy)phenyl)propyl)-1H-pyrazolo[3,4-d]pyrimidin-4(5H)-one]	0.89 nM
Cc1nc2c(c(CO)nn2C(c2ccc(C(F)(F)F)c(F)c2)C(C)C)c(=O)[nH]1 (single isomer, unassigned) [Example 87, (S)- or (R)-1-(1-(3-Fluoro-4-(trifluoromethyl)phenyl)-2-methylpropyl)-3-(hydroxymethyl)-6-methyl-1H-pyrazolo[3,4-d]pyrimidin-4(5H)-one]	3.3 nM
Cc1nc2c(c(CO)nn2C(c2ccc(C(C)(C)C)cc2)C2CC2)c(=O)[nH]1 (single isomer, unassigned) [Example 88, (R)- or (S)-1-((4-tert-Butylphenyl)(cyclopropyl)methyl)-3-(hydroxymethyl)-6-methyl-1H-pyrazolo[3,4-d]pyrimidin-4(5H)-one]	45 nM
Cc1nc2c(c(CO)nn2C(c2ccc(C(C)(C)C)cc2)C2CC2)c(=O)[nH]1 (single isomer, unassigned) [Example 89, (S)- or (R)-1-((4-tert-Butylphenyl)(cyclopropyl)methyl)-3-(hydroxymethyl)-6-methyl-1H-pyrazolo[3,4-d]pyrimidin-4(5H)-one]	0.33 nM
Cc1nc2c(c(CO)nn2C(c2ccc(C(F)(F)F)c(F)c2)C2CC2)c(=O)[nH]1 (single isomer, unassigned) [Example 90, (R)- or (S)-1-(Cyclopropyl(3-fluoro-4-(trifluoromethyl)phenyl)methyl)-3-(hydroxymethyl)-6-methyl-1H-pyrazolo[3,4-d]pyrimidin-4(5H)-one]	78 nM
Cc1nc2c(c(CO)nn2C(c2ccc(C(F)(F)F)c(F)c2)C2CC2)c(=O)[nH]1 (single isomer, unassigned) [Example 91, (S)- or (R)-1-(Cyclopropyl(3-fluoro-4-(trifluoromethyl)phenyl)methyl)-3-(hydroxymethyl)-6-methyl-1H-pyrazolo[3,4-d]pyrimidin-4(5H)-one]	1.1 nM
Cc1nc2c(c(CO)nn2C(c2ccc(OC(F)(F)F)c(F)c2)C2CC2)c(=O)[nH]1 (single isomer, unassigned) [Example 92, (R)- or (S)-1-(Cyclopropyl(3-fluoro-4-(trifluoromethoxy)phenyl)methyl)-3-(hydroxymethyl)-6-methyl-1H-pyrazolo[3,4-d]pyrimidin-4(5H)-one]	8.3 nM
Cc1nc2c(c(CO)nn2C(c2ccc(OC(F)(F)F)c(F)c2)C2CC2)c(=O)[nH]1 (single isomer, unassigned) [Example 93, (S)- or (R)-1-(Cyclopropyl(3-fluoro-4-(trifluoromethoxy)phenyl)methyl)-3-(hydroxymethyl)-6-methyl-1H-pyrazolo[3,4-d]pyrimidin-4(5H)-one]	1.7 nM
Cc1nc2c(c(CF)nn2C(c2ccc(OC(F)(F)F)cc2)C2CC2)c(=O)[nH]1 (single isomer, unassigned) [Example 224, (R)- or (S)-1-(Cyclopropyl(4-(trifluoromethoxy)phenyl)methyl)-3-(fluoromethyl)-6-methyl-1,5-dihydro-4H-pyrazolo[3,4-d]pyrimidin-4-one]	0.48 nM
Cc1nc2c(c(CF)nn2C(c2ccc(C(F)(F)F)c(F)c2)C2CC2)c(=O)[nH]1 (single isomer, unassigned) [Example 226, (R)- or (S)-1-(Cyclopropyl(3-fluoro-4-(trifluoromethyl)phenyl)methyl)-3-(fluoromethyl)-6-methyl-1,5-dihydro-4H-pyrazolo[3,4-d]pyrimidin-4-one]	0.32 nM
Cc1nc2c(c(CF)nn2C(c2ccc(OC(F)(F)F)c(F)c2)C2CC2)c(=O)[nH]1 (single isomer, unassigned) [Example 228, (R)- or (S)-1-(Cyclopropyl(3-fluoro-4-(trifluoromethoxy)phenyl)methyl)-3-(fluoromethyl)-6-methyl-1,5-dihydro-4H-pyrazolo[3,4-d]pyrimidin-4-one]	0.42 nM
